Test results reported in US20240197737A1, “APPLICATION OF COMPOUND IN PREPARATION OF INHIBITORY DRUG TARGETING ERBB2 MUTANT” (SHANGHAI PHARMACEUTICALS HOLDING CO., LTD., priority 2021, published 2024).

Experiments:
[1] = biological target: T1, ErbB2 (D769H) (Homo sapiens, UniProt P04626, D769H); assay: ErbB2 mutant inhibition assay (33P-ATP radiometric kinase assay, Reaction Biology); format: biochemical; conditions: ATP 10 μM, 20 min preincubation, 2 h reaction; read-out: Compound IC50 ErbB2 (D769H)
T1 construct: purchased Reaction Biology Corporation
Procedure: (§1) The reagents and materials used in the assay, as well as the testing procedure, were provided and carried out by Reaction Biology Corporation. The specific steps were as follows: • 1. […] Conditions for the enzyme reaction assay: The test compounds were incubated for 20 minutes, ATP concentration was set at 10 μM, and the total duration of the enzyme reaction was 2 hours. • 3. Experimental steps for the enzyme reaction
(§2) The enzyme reaction buffer was 20 mM HEPES at a pH of 7.5, 10 mM MgCl2, 2 mM MnCl2, 1 mM EGTA, 0.01% Brij35, 0.02 mg/mL BSA, 0.1 mM Na3VO4, 2 mM DTT, and 1% DMSO.
(§3) Kinase activity %=(Remaining kinase activity of test compound samples/Kinase activity of solvent control samples (DMSO))*100%
(§4) The IC50 of the compound was calculated by fitting the kinase activity % at different compound concentrations.

[2] = biological target: T2, ErbB2 (D769Y) (Homo sapiens, UniProt P04626, D769Y); assay: as above; format: biochemical; conditions: ATP 10 μM, 20 min preincubation, 2 h reaction; read-out: Compound IC50 ErbB2 (D769Y)
T2 construct: purchased Reaction Biology Corporation
Procedure: as §1, §2, §3, §4

[3] = biological target: T3, ErbB2 (R896C) (Homo sapiens, UniProt P04626, R896C); assay: as above; format: biochemical; conditions: ATP 10 μM, 20 min preincubation, 2 h reaction; read-out: Compound IC50 ErbB2 (R896C)
T3 construct: purchased Reaction Biology Corporation
Procedure: as §1, §2, §3, §4

[4] = biological target: T4, ErbB2 (V777L) (Homo sapiens, UniProt P04626, V777L); assay: as above; format: biochemical; conditions: ATP 10 μM, 20 min preincubation, 2 h reaction; read-out: Compound IC50 ErbB2 (V777L)
T4 construct: purchased Reaction Biology Corporation
Procedure: as §1, §2, §3, §4

[5] = test system: NCI-H1781 ErbB2 exon20ins (G766 > VC); assay: ErbB2 mutant cell inhibition test (CTG, 72 hours); format: cell-based, Human
Procedure: Cells were cultured, harvested during their logarithmic growth phase, and counted using a platelet counter. Cell viability was verified to be above 90% by trypan blue exclusion assay. After in vitro culture, 2×10^6 cells were obtained. The cell suspension was aliquoted into a 96-well plate at 1×10^3 cells per well (90 μL/well), and incubated overnight under conditions of 37° C., 5% CO2, and 95% humidity. A 10× drug solution was prepared, with a maximum concentration of 10 μM for the assay, and serially diluted 3-fold to nine concentrations. 10 μL of the drug solution was added to each well of the 96-well plate inoculated with the cells, and three duplicate wells were set for each drug concentration. The 96-well plate, now containing the drug-treated cells, was cultured under conditions of 37° C., 5% CO2, and 95% humidity for an additional 72 hours before CTG analysis was performed.

[6] = test system: Ba/F3 ErbB2 A775_G776insYVMA; assay: ErbB2 mutant cell inhibition test (CTG, 72 hours); format: cell-based
Procedure: Cells were cultured, harvested during their logarithmic growth phase, and counted using a platelet counter. Cell viability was verified to be above 90% by trypan blue exclusion assay. After in vitro culture, 2×10^6 cells were obtained. […] A 10× drug solution was prepared, with a maximum concentration of 10 μM for the assay, and serially diluted 3-fold to nine concentrations. 10 μL of the drug solution was added to each well of the 96-well plate inoculated with the cells, and three duplicate wells were set for each drug concentration.

[7] = test system: Ba/F3 ErbB2 A775_G776insYVMA mouse xenograft; assay: Efficacy testing in NPSG mouse xenograft model; format: in vivo; conditions: for TGI (%): administration for 13 days; for Efficacy (in words): continuous administration for 13 days
Source text: NPSG male mice (Shanghai Jihui Laboratory Animal Care Co., Ltd., Certificate: No. 20170012006783) were subcutaneously inoculated on the right shoulder with Ba/F3 ErbB2 A775_G776insYVMA cells (cultured in vitro, 9×10^7 cells obtained). When the average tumor volume reached 130 mm^3, the mice were randomly divided into six groups based on tumor volume and body weight, with 10 mice in each group, and administration was started immediately. After the initiation of administration, the mice's body weight and tumor volume were measured twice a week, with the administration continued until Day 13 of the experiment. On Day 14 of the experiment, post-administration sample collection was conducted for each group.
Note: Data are presented as mean±standard error; control group is the group without any compound administered.

T1 sequence (P04626 23-1255 D769H): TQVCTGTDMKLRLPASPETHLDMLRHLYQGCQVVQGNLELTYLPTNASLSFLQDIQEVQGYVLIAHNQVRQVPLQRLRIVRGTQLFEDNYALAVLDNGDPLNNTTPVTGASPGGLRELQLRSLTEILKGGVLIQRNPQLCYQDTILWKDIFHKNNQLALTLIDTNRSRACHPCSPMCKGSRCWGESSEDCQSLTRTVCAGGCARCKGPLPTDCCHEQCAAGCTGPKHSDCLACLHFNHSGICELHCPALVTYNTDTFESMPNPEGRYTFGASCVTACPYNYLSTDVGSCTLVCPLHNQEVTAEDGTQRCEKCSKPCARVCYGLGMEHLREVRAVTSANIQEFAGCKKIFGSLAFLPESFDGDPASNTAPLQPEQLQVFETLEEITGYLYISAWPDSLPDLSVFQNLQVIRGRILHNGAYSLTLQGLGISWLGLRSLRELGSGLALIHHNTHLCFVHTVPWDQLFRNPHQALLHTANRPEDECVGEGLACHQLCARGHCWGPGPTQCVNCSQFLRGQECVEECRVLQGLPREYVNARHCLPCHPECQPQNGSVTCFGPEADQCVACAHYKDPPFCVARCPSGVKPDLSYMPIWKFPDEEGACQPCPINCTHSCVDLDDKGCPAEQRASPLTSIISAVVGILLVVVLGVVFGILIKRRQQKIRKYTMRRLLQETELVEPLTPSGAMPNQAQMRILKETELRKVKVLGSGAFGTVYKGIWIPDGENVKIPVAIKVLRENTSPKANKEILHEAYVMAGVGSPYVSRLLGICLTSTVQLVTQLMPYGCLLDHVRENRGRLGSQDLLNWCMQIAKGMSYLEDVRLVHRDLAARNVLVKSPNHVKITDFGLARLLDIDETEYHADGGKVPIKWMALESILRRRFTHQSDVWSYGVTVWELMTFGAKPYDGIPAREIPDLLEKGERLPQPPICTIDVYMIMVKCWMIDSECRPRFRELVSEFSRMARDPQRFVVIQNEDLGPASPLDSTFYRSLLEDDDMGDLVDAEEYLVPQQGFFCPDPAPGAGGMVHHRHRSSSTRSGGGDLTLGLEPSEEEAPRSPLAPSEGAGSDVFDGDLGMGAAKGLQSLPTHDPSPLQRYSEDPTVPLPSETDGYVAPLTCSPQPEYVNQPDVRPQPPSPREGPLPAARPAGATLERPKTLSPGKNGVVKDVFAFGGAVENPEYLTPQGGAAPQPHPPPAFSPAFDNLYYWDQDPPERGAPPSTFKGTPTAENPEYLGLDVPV
T2 sequence (P04626 23-1255 D769Y): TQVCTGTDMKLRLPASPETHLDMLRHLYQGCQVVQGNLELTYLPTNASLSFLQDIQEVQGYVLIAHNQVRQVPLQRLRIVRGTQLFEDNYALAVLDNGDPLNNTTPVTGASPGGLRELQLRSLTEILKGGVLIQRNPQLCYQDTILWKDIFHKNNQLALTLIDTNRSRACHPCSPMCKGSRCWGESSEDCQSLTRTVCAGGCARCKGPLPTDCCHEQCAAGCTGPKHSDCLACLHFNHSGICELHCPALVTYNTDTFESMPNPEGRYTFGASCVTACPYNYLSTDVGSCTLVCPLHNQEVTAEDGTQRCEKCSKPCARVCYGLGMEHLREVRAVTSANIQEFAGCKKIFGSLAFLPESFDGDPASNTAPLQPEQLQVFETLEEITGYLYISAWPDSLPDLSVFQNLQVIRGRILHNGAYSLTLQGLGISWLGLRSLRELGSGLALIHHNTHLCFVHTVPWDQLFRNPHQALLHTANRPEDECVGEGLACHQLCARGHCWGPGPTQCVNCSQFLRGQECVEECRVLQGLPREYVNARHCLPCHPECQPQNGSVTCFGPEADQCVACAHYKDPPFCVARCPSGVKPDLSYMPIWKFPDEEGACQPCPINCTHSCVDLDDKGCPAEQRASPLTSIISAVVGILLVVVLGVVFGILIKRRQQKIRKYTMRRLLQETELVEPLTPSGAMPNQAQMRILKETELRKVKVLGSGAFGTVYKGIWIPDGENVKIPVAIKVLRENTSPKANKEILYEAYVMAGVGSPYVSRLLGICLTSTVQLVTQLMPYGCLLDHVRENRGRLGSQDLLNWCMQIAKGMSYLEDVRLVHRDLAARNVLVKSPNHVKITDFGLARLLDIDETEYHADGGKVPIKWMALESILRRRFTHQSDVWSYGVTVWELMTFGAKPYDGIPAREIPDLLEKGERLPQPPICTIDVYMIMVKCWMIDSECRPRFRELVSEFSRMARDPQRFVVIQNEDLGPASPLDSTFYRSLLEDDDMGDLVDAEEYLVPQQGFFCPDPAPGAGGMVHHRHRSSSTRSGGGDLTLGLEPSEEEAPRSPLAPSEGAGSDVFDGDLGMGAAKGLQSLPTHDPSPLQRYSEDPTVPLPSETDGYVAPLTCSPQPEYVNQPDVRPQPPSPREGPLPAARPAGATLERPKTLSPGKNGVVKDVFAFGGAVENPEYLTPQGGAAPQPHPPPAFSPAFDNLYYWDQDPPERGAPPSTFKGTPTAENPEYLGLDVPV
T4 sequence (P04626 23-1255 V777L): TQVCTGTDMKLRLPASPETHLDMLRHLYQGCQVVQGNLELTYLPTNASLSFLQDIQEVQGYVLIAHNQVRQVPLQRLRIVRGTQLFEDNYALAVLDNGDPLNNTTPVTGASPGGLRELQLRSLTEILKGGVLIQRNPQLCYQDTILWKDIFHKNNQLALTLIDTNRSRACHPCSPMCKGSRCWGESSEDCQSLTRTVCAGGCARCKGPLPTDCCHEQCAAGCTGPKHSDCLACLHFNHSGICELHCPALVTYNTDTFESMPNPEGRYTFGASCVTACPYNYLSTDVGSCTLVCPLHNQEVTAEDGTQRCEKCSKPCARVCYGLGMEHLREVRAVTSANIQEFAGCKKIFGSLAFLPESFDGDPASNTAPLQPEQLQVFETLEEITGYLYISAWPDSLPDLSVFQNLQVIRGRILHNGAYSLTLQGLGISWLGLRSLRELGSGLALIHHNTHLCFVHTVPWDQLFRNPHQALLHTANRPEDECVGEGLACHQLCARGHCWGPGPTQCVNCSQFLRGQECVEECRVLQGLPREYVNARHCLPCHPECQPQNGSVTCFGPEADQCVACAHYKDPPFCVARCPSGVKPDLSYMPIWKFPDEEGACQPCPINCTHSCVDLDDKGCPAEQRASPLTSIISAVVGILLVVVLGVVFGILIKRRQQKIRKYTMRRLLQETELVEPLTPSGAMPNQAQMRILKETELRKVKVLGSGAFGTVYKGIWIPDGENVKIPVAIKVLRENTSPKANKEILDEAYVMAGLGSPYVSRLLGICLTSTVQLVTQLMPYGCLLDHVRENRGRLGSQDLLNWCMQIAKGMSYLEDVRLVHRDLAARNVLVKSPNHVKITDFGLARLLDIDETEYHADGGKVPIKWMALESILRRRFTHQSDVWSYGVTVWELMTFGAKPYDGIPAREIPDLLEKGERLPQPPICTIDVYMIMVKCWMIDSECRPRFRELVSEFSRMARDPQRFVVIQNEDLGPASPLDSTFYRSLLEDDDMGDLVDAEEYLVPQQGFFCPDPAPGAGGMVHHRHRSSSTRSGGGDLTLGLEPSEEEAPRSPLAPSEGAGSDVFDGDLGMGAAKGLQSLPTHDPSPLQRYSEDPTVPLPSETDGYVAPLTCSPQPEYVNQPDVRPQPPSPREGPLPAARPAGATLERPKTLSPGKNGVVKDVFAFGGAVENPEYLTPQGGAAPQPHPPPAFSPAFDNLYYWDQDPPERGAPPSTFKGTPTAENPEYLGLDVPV
T3 sequence (P04626 23-1255 R896C): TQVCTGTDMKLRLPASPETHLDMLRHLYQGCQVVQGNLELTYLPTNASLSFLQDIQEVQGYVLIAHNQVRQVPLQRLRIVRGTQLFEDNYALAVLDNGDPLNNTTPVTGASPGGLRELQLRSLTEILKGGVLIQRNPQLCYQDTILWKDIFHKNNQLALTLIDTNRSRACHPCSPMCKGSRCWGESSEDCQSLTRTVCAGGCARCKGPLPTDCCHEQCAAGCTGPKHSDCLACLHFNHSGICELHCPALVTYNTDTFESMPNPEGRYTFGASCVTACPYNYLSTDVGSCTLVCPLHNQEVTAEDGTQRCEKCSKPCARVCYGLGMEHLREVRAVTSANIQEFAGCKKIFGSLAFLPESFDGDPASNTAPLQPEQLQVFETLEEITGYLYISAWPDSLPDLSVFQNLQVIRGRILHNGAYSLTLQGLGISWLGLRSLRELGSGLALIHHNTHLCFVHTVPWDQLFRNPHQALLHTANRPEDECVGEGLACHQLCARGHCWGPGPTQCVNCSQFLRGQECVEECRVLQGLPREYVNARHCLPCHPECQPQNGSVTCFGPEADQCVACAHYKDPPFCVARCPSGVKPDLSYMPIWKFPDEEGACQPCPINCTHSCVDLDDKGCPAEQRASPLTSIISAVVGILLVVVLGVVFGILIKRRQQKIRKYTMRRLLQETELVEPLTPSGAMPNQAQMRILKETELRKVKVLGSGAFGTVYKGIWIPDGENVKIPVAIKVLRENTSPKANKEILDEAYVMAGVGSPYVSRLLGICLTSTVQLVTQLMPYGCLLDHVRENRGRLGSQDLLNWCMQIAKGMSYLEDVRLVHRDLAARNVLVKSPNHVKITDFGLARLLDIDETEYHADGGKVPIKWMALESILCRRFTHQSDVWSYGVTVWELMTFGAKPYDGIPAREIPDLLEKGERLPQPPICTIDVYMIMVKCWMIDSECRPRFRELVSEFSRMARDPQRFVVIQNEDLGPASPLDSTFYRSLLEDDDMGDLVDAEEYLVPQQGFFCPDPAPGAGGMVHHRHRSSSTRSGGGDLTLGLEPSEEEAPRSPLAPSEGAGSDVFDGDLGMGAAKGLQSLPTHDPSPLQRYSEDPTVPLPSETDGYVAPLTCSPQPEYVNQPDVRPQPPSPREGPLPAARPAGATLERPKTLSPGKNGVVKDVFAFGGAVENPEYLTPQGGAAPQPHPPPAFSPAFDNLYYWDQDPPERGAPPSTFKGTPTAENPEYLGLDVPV

`CCOc1cc2ncnc(Nc3ccc(Oc4ccn5ncnc5c4)c(C)c3)c2cc1NC(=O)/C(F)=C/[C@H]1CCCN1C` [Compound I] gave an IC50 [1] of 0.716 nM, an IC50 [2] of 1.4 nM and an IC50 [3] of 0.713 nM. For the same compound, the IC50 [4] was 0.312 nM, the IC50 ([5]; Homo sapiens, NCI-H1781 ErbB2 exon20ins (G766 > VC), 72 hours, CTG) was 35.8 nM and the “Inhibitory activity on cell proliferation (in words)” value ([5]; NCI-H1781 mutant cell line) was “good inhibitory activity”. For the same compound, the “Inhibitory activity on cell proliferation (in words)” value ([6]; Ba/F3 ErbB2 A775_G776insYVMA mutant cell line) was “good inhibitory activity”, the IC50 ([6]; Mus musculus, BaF3, Ba/F3 ErbB2 A775_G776insYVMA, 72 hours, CTG) was 5 nM and the Tumor volume ([7]; 10 mg/kg, Day 0, mean ± standard error) was 130.9 ± 4.72 mm^3. It also gave a Tumor volume ([7]; 10 mg/kg, Day 4, mean ± standard error) of 112.1 ± 4.71 mm^3, a Tumor volume ([7]; 10 mg/kg, Day 7, mean ± standard error) of 157.7 ± 6.95 mm^3 and a Tumor volume ([7]; 10 mg/kg, Day 11, mean ± standard error) of 160.2 ± 6.3 mm^3. For the same compound, the Tumor volume ([7]; 10 mg/kg, Day 13, mean ± standard error) was 172.9 ± 11.16 mm^3, the “TGI (%)” value ([7]; 10 mg/kg) was 95% and the “Efficacy (in words)” value ([7]; 10 mg/kg) was “strong efficacy”. For the same compound, the Tumor volume ([7]; 20 mg/kg, Day 0, mean ± standard error) was 130.2 ± 5.25 mm^3, the Tumor volume ([7]; 20 mg/kg, Day 4, mean ± standard error) was 69.2 ± 2.69 mm^3 and the Tumor volume ([7]; 20 mg/kg, Day 7, mean ± standard error) was 82.7 ± 4.74 mm^3. The Tumor volume ([7]; 20 mg/kg, Day 11, mean ± standard error) was 93.5 ± 5.75 mm^3, the Tumor volume ([7]; 20 mg/kg, Day 13, mean ± standard error) was 71.1 ± 4.51 mm^3 and the “TGI (%)” value ([7]; 20 mg/kg) was 107%. The “Efficacy (in words)” value ([7]; 20 mg/kg) was “strong efficacy”, the Tumor volume ([7]; 40 mg/kg, Day 0, mean ± standard error) was 130.1 ± 5 mm^3 and the Tumor volume ([7]; 40 mg/kg, Day 4, mean ± standard error) was 63.8 ± 4.44 mm^3. For the same compound, the Tumor volume ([7]; 40 mg/kg, Day 7, mean ± standard error) was 36.3 ± 11.12 mm^3, the Tumor volume ([7]; 40 mg/kg, Day 11, mean ± standard error) was 21.5 ± 9.26 mm^3 and the Tumor volume ([7]; 40 mg/kg, Day 13, mean ± standard error) was 20.6 ± 8.61 mm^3. For the same compound, the “TGI (%)” value ([7]; 40 mg/kg) was 112%, the “Efficacy (in words)” value ([7]; 40 mg/kg) was “strong efficacy” and the “Tumor inhibitory effect compared with the other test groups (in words)” value ([7]; 40 mg/kg, statistically different from other test groups (p-value less than 0.01)) was “strongest tumor inhibitory effect”.
